Publication PMC9305971, “Development of [^18F]AmBF3 Tetrazine for Radiolabeling of Peptides: Preclinical Evaluation and PET Imaging of [^18F]AmBF3-PEG7-Tyr^3-Octreotide in an AR42J Pancreatic Carcinoma Model” (Bioconjugate Chemistry, 2022)
Like-named read-outs stand apart in the source and are kept apart here.

Assays:
[1] = Distribution of radioactivity in blood components after i.v. administration; type: in vivo, mice
Protocol: (§1) Whole blood from mice were extracted during ex vivo studies, using cardiac puncture. The sample was applied in a microtube containing 1% heparin solution in 0.9% NaCl (aq.) (2 μL); the sample was centrifuged (1000g, 10 min), the total radioactivity in the sample was measured with a γ counter, the supernatant was separated from the pellet (RBC containing fraction), and cold ACN (500 μL) was added. The sample was centrifuged (10,000g, 5 min) to remove the free fraction from the precipitated protein-containing pellet. The pellet (protein-bound fraction) and the supernatant (free fraction) were measured with a γ counter, and a sample (100 μL) was injected into HPLC and spotted (4 μL) on a TLC plate (radio-TLC, TLC silica gel 60 F254, ACN/water 80:20).

[2] = Ex vivo radiometabolite analysis in mouse blood and urine (radio-TLC, radio-HPLC); settings: for radiotracer intact in blood and urine: 60 min post injection, ex vivo
Protocol: After tracer injection, CO2 asphyxiation, and cervical dislocation, blood was collected from a cardiac puncture into a tube containing 2 μL of 1% heparin (diluted from 5100 IU/mL) in 0.9% NaCl (aq.). The sample was centrifuged (1000g, 10 min) to separate the plasma from the blood cells. Cold acetonitrile (2 × vol of plasma) was added and centrifuged (10,000g for 5 min) to precipitate the proteins. A sample (100 μL) of the supernatant was injected into HPLC for radio-HPLC analysis. For the tracer [^18F]14, the supernatant was sampled also on TLC for digital autoradiography analysis.
as §1
Figure S26. Ex vivo stability of [18F]AmBF3-PEG4-TOC ([18F]14) in AR42J tumor bearing mouse blood 5 and 30 minutes post-injection (Radio-TLC). […]
retardation factor (Rf) of Rf = 40 mm. At 30 minutes post-injection the radiometabolite at 40 mm had disappeared and instead a highly polar metabolite (2.8%) at 4.0 mm was visible, and was accompanied by another metabolite (2.0%) eluting in the immediate vicinity of [18F]14 at Rf = 58 mm. At 60 minutes post-injection the tracer accounted for ≥99% of the radioactivity both in blood and urine (ex vivo). […]
(1 picture or pasted object on this page, not shown here)

[3] = 60 min post injection, blocked with octreotide
[4] = 30 minutes post-injection, radio-TLC

## C[C@@H](O)[C@@H]1NC(=O)[C@H](CCCCN)NC(=O)[C@@H](Cc2c[nH]c3ccccc23)NC(=O)[C@H](Cc2ccc(O)cc2)NC(=O)[C@@H](NC(=O)[C@@H](Cc2ccccc2)NC(=O)CCOCCOCCOCCOCCON=Cc2ccc(CNC(=O)OC3CCCc4cnnc(-c5ccc(CC(=O)NCC[N+](C)(C)C[B-](F)(F)F)cc5)c4CC3)cc2)CSSC[C@@H](C(=O)N[C@H](CO)[C@@H](C)O)NC1=O (some centres unmarked) [[^18F]14]
[1]; 5 min post injection
  protein bound fraction: 5.5%
  radioactivity bound to red blood cells: 22%
[1]; 5 min post injection, listed as [18F]14
  radioactivity bound to red blood cells: 21.6%
[1]; 60 min post injection
  protein bound fraction: 7.00%
  radioactivity bound to red blood cells: 25%
[1]; [3]
  protein bound fraction: 14.6%
  radioactivity bound to red blood cells: 29.7 ± 2.9%
[1]; 60 min post injection, blocked with octreotide, listed as [18F]14
  radioactivity bound to red blood cells: 29.7%
[1]; 60 min post injection, listed as [18F]14
  radioactivity bound to red blood cells: 24.5%
[1]; mouse, whole blood, intravenous, 5 min post injection, read-out: free fraction
  fraction unbound at 5 min: 0.729 ± 0.051
[1]; mouse, whole blood, intravenous, 60 min post injection, blocked with octreotide, read-out: free fraction
  fraction unbound at 60 min: 0.557 ± 0.114
[1]; mouse, whole blood, intravenous, 60 min post injection, read-out: free fraction
  fraction unbound at 60 min: 0.685 ± 0.053
[2]; 5 minutes post-injection, radio-TLC
  slightly polar metabolite in blood (Rf = 40 mm): 4%
[2]; [4]
  another metabolite in blood (Rf = 58 mm): 2.0%
  highly polar metabolite in blood (4.0 mm): 2.8%
[2]
  radiotracer intact in blood and urine: approximately 99%
[2]; listed as [18F]14
  radiotracer intact in blood and urine: ≥ 99%
